Legend:
[1] = system: opioid and dopamine receptors; experiment: Functional [35S]GTPγS binding, spinal cord membrane; type: biochemical, rat (Wistar); conditions: for Emax / Emax ± S.E.M., Ligand + Risperidone / Emax ± S.E.M., ligand alone / Emax ± S.E.M., Ligand + Cyprodime: rat spinal cord membrane, 30 °C, 60 min; for Emax / Emax ± S.E.M., Ligand + Risperidone: dopaminergic system; for Emax: + SCH-39166 (selective D1R antagonist), ns vs ligand alone, read-out: Emax ± S.E.M., Ligand + SCH-39166; for Emax / Emax ± S.E.M., Ligand + Risperidone / Emax ± S.E.M., Ligand + Cyprodime: pH 7.4; for Emax ± S.E.M., Ligand + Risperidone: + risperidone (selective D2R antagonist); for Emax ± S.E.M., Ligand + Risperidone / Emax ± S.E.M., Ligand + Cyprodime: *** p < 0.001 vs ligand alone; for Emax ± S.E.M., ligand alone: Tris-EGTA pH 7.4, 0.05 nM [35S]GTPγS; for Emax ± S.E.M., Ligand + Cyprodime: opioid system, + cyprodime (selective MOR antagonist)
Protocol: (§1) Both male and female Wistar rats were used for membrane preparations (brains and spinal cords). Animals were housed at 22 ± 0.5 °C with a 12:12 h light–dark cycle. Food and water were available ad libitum. All animal manipulations were carried out according to the European Communities Council Directives ([…]) and the Hungarian Act for the Protection of Animals in Research (XXVIII.tv. 32.§).
(§2) The functional [^35S]GTPγS binding experiments were performed as previously described. In brief, the brain and spinal cord homogenates were incubated at 30 °C for 60 min in Tris-EGTA buffer (pH 7.4) containing [^35S]GTPγS (0.05 nM) and in the presence of varying concentrations of the ligand. Non-specific binding was determined in the presence of non-radiolabeled 10 μM GTPγS. The reaction was stopped by rapid filtration under vacuum (Brandel M24R Cell Harvester), and the samples were washed with cold Tris-HCl buffer. The radioactivity of the dried filters was determined by scintillation counting.

[2] = system: MOR; experiment: Competitive [3H]DAMGO binding (MOR); parameters: species or system rat (Wistar); conditions: receptor binding assay, rat brain and spinal cord homogenates
Excerpt: (§3) The chimeric peptide LENART01 was examined in [^3H]DAMGO, [^3H]SCH−23390 and [^3H]Spiperone homolog displacement in rat brains and spinal cord homogenates. The binding affinity of the hybrid and its intrinsic activity value were compared with dermorphin and ranatensin, its structural components.
(§4) Figure 3 Binding affinity of LENART01 at MOR (A,B), D1R (C,D) and D2R (E,F) receptors, respectively, using [^3H]DAMGO and [^3H]SCH−23390 and [^3H]Spiperone as radioligands. Results represent mean ± SEM of 3 independent experiments, each performed in duplicate.
as §1
(§5) Competitive analysis of the chimera activity was performed in the presence of naloxone (in case of MOR displacement studies) or SCH-23390 (for D1R) and spiperone (for D2R). […] The radioactivity of the dried filters was detected using an UltimaGold^TM MV aqueous scintillation cocktail with a Packard Tricarb 2300TR liquid scintillation counter. […]

[3] = system: opioid and dopamine receptors; experiment: Functional [35S]GTPγS binding, brain membrane; type: biochemical, rat (Wistar); conditions: for Emax ± S.E.M., Ligand + Risperidone: + risperidone (selective D2R antagonist), *** p < 0.001 vs ligand alone; for Emax ± S.E.M., ligand alone: Tris-EGTA pH 7.4, 0.05 nM [35S]GTPγS; for Emax ± S.E.M., Ligand + Cyprodime: opioid system, + cyprodime (selective MOR antagonist), *** p < 0.001 vs ligand alone (unpaired t-test)
Protocol: as §1, §2

[4] = system: dopamine D2 receptor (D2R); conditions: cited from earlier work
Excerpt: (§6) Noteworthily, the N-terminal pharmacophore of LENART01 consists of dermorphin with an amino acid sequence of YdAFGYPS. At the same time, the C-terminus was constructed from ranatensin, which was additionally heavily modified, resulting in a sequence of GHFM.

[5] = system: dopaminergic receptors; conditions: ref Zhu et al. 10; cited from earlier work
[6] = system: E. coli strains; conditions: different E. coli strains; cited from earlier work
Excerpt: as §6

[7] = system: D2R; experiment: Competitive [3H]Spiperone binding (D2R); parameters: species or system rat (Wistar); conditions: rat brain and spinal cord homogenates
Excerpt: as §3, §4, §1, §5

[8] = rat brain membrane, dopaminergic system, 30 °C, 60 min, pH 7.4
[9] = rat brain membrane, 30 °C, 60 min
[10] = rat brain membrane, 30 °C, 60 min, pH 7.4

Substance | Emax [1] | Emax ± S.E.M., Ligand + Risperidone [1] | Emax ± S.E.M., ligand alone [1] | binding to MOR [2] | Emax ± S.E.M., Ligand + SCH-39166 ([3]; rat brain membrane, dopaminergic system, + SCH-39166 (selective D1R antagonist), 30 °C, 60 min, pH 7.4, ns for chimera, *** p < 0.001 for ranatensin) | Emax ± S.E.M., Ligand + Risperidone [3, 8] | Emax ± S.E.M., ligand alone [3, 9] | interaction with D2R [4] | analgesia and naloxone antagonism [5] | Emax ± S.E.M., Ligand + Cyprodime [1] | maximal stimulation vs dermorphin ([1]; spinal cord membrane, [35S]GTPγS) | Emax ([3]; rat brain membrane, dopaminergic system, + SCH-39166 (selective D1R antagonist), 30 °C, 60 min, pH 7.4, ns for chimera, *** p < 0.001 for ranatensin, read-out: Emax ± S.E.M., Ligand + SCH-39166) | Emax ± S.E.M., Ligand + Cyprodime [3, 10] | dose-dependent increases in functional binding vs dermorphin ([3]; rat brain membranes, [35S]GTPγS) | effect of SCH−39166 on efficacy ([3]; selective D1R antagonist SCH−39166, tissue not specified) | effect of risperidone on stimulation ([3]; selective D2R antagonist risperidone, tissue not specified) | effect of cyprodime on efficacy ([3]; selective MOR antagonist cyprodime, tissue not specified) | antimicrobial activity [6] | selectivity to D2R compared to D1R ([7]; [3H]Spiperone (D2R) vs [3H]SCH-23390 (D1R), Tris-HCl pH 7.4, 3 independent experiments in duplicate) | binding to dopamine receptors ([7]; receptor binding assay in vitro, abstract statement)
ranatensin [reference compound] | 117.4 ± 1.1% | 100.0 ± 0.7 *** % | 119.8 ± 1.3% | did not bind to MOR | 119.1 ± 0.8 *** % | 101.5 ± 1.7 *** % | 124.1 ± 1.9% | known to interact with | naloxone failed to antagonize the pain-relieving effect | – | – | – | – | – | – | – | – | – | – | –
YdAFGYPSGHFM [LENART01] | 136 ± 1.7% | 101.6 ± 1.2 *** % | 136.3 ± 2.2% | bound to mu-opioid and dopamine receptors | – | 101.1 ± 0.7 *** % | 140.6 ± 1.0% | – | – | 100.8 ± 1.1 *** % | less than that of dermorphin | 140.8 ± 0.8% | 100.4 ± 1.4 *** % | equal to the increases in dermorphin | did not significantly reverse the efficacy | brought down the stimulation of LENART01 to basal activity | reversed the efficacy | antimicrobial activity against different E. coli strains | high selectivity to D2R compared to D1R | bound to mu-opioid and dopamine receptors
YdAFGYPS [dermorphin, reference compound] | – | – | 140.0 ± 1.8% | – | – | – | 140.5 ± 2.9% | – | – | 100.4 ± 0.9 *** % | – | – | 100.0 ± 1.1 *** % | – | – | – | – | – | – | –

From paper PMC10780910, “Opioid/Dopamine Receptor Binding Studies, NMR and Molecular Dynamics Simulation of LENART01 Chimera, an Opioid-Bombesin-like Peptide” (Molecules, 2024)
